Consider 14 molecules from US10011813B2, “Methane oxidation methods and compositions” (California Institute of Technology, priority 2015, dated 2018).

≈ marks a conversion by molar mass, not a printed value. Where “and” joins values, the source holds several entries; their conditions need not be identical. Equal entries are not always repeated. Marks after values point to notes of the source that are not given here.

The test system of series [1] is methane seep sediment (ANME archaea). Kind of series: AOM rate measurement via 13C-methane (newly formed DIC) in methane seep sediment incubations. The class given is cell-based, ANME-2a and ANME-2c. From the text: General description of methane oxidation measurements via ^13C-methane. Methane oxidation was quantified by determining the production of inorganic carbon (“CO2”). Accurate quantification of the concentration of inorganic carbon formed from methane oxidation is challenging due to 4 main reasons:
A defined amount of added DIC in artificial, buffered seawater was used with a low calcium concentration to prevent carbonate precipitation (see medium composition). As ^13CH4 was the only ^13C-enriched carbon source added, the newly formed ^13C-DIC must be derived from methane. For low methane oxidation rates (less than ca. 5% relative to sulfate as the oxidant or electron acceptor), however, enzyme-catalyzed isotope exchange between methane and DIC, needs to be taken into account, because it contributes to ^13C enrichment of the DIC without net methane oxidation, resulting in an overestimation of net methane oxidation. […] Details of both methods, the ^13CH4 experiments and the standard addition are described herein.
Incubation conditions for AOM rate measurement. Each incubation vial was set up with 1.0 cm^3 wet sediment (wet sediment=volume of sediment after allowing the sediment slurry settle for 48 h) in total slurry volume of […] as follows: Sterile serum vials were closed with butyl rubber stoppers (volume=12.9 ml after closing) and flushed with methane. 1.0 mL ^13CH4 (99% ^13C, Cambridge Isotope Laboratories, containing 0.05 vol % ^13CO2 as an impurity) was introduced anaerobically. 2.0 mL of artificial, anaerobic seawater containing 2.5× the target concentration of the corresponding electron acceptor was injected into the serum vial cooled on ice. For AQDS and 1,5-AQDS, this was a suspension corresponding to 25 mM (see TABLE 3).
The 1 L pyrex bottle with the sediment in the sulfate-free medium (1 part wet sediment in 3 parts of slurry volume) was vigorously shaken each time and 3.0 mL of slurry immediately removed and injected into the individual serum bottles. Each stoppered serum vial was supplemented with unlabeled methane (0.250 MPa overpressure: pressure gauge SSI Technologies, Inc., Media Gauge™) shaken and stored inverted at 4° C. (final headspace: 0.35 MPa methane, with ca. 4% ^13CH4). The exact fractional abundance of ^13C in the methane was quantified via ^1H-NMR spectroscopy for individual incubations.
AOM rate measurements (quantification of newly formed DIC based on ^13CH4). For ^13C-DIC analysis, 0.25 mL of the medium above the settled sediment in the microcosm was sampled with a disposable needle and syringe at each time point (same intervals for all experiments) and centrifuged (16000 rcf, 5 min). The supernatant was transferred into 0.6 mL eppendorf tubes, flash frozen in N2 (l), and stored at −20° C. until measurement. 150 μL of the thawed supernatant was then added to He-flushed vials containing 100 μL H3PO4 (85%). The resulting CO2 was analyzed for the isotopic enrichment (^13F(tn)) on a GC-IR-MS GasBench II (Thermo Scientific). The amount of DIC newly formed (Δ[DIC](tn), see FIG. 6B) was calculated from the measured ^13F (fractional abundance of ^13C), neglecting isotope effects on AOM according to Equation (1): Δ[DIC](tn)=[DIC](t0)*(^13F(tn)−^13F(t0))/(^13F(CH4)−^13F(tn)) (EQ. 1)

Series [2] is described as follows: Quantification of AQDS solubility in the incubation medium. The series is classed as physicochemical. On the procedure:
Quantification of AQDS solubility in the incubation medium. Different regioisomers of AQDS (1,5-AQDS, 2,6-AQDS and 2,7-AQDS) were separately added to the modified artificial seawater described above, to a targeted final concentration of 25 mM. The suspensions were ultra-sonicated at room temperature to dissolve as much of the AQDS as possible. The tubes were kept at 4° C. or at 22.5° C. overnight. The tubes were centrifuged at 4° C. or 22.5° C. (16000 rcf, 30 min). The supernatant (300 μL) was mixed with 300 μL acetate (10.0 mM) as the internal standard and 100 μL deuterated water (99.9% D, Cambridge Isotope Laboratories) was added. The concentration of AQDS was obtained from integration of the ^1H-NMR spectra by comparison relative to the acetate standard.

In the next series the test system is ANME-SRB consortia. Kind of series: FISH-nanoSIMS 15N incorporation (anabolic activity) of ANME-SRB consortia. The class given is cell-based, ANME-2c archaea and Desulfobacteraceae. The method, then:
Incubations for FISH-nanoSIMS and RNA analysis. For AOM incubations with sulfate or AQDS that were used for nanoSIMS (FIG. 7 and FIG. 8A) and RNA analysis (FIG. 6), incubations experiments were set up following the AOM-rate measurements described above (initially containing 1.0 mM ammonium without ^15N label). Methane oxidation rates were tracked in these incubations via the ^13C label. After 11 days, ca. 3.5 mL of supernatant remained in the serum bottles to which 3.0 mL artificial seawater without ammonium containing either 25 mM AQDS, 28 mM sulfate, or no oxidant or electron acceptor was added. Next, 0.1 mL ^15NH4^+ (100 mM) was injected to yield about 2.0 mM ammonium with ca. 75% ^15N. Methane oxidation was monitored. After additional 8 days, the medium of the AQDS incubations was exchanged by 5.0 mL new medium containing 25 mM AQDS and 2.0 mM ^15NH4^+. Now the AQDS incubations contained ca. 95% ^15NH4^+ in the ammonium pool. The cultures were incubated for additional 10 days before harvest. Total incubation time with labeled ammonium: 18 days. Average labeling strength: ca. 75% for sulfate and no oxidant or electron acceptor control; ca. 86% for the AQDS incubations.
For the second independent set of experiments with iron citrate, humic acids and sulfate (FIG. 8B), the medium contained 1.0 mM ammonium with ca. 40% ^15N label throughout the incubation period. These experiments were carried out from identical incubations that were for the AOM rate measurements (highlighted in Table 4). In regards to Table 4, the percentage AOM rates are reported relative to sulfate-coupled AOM (1.50 μmol cm^−3 day^−1). Top: Summary of compounds described in FIG. 1B; Bottom: Oxidants or electron acceptors resulting in an AOM rate less than 0.10 μmol […] day^−1 (<7% rel. to sulfate as oxidant or electron acceptor).
Sampling for FISH-nanoSIMS and RNA. After an 18-day incubation in the presence of ^15NH4^+, each incubation was shaken to suspend the sediment and 1.0 mL sediment slurry was sampled using a disposable sterile needle and syringe (ca. 0.3 mL wet sediment). […]
Sample preparation for aggregate embedding, sectioning, FISH, and nanoSIMS. […] Sections of ca. 1 μm thickness were cut and stretched on a water droplet on a polylysine coated slide with teflon wells (Tekdon Inc) and analyzed by fluorescence in situ hybridization (FISH). […]
FISH conditions and probes. The FISH hybridization on thin sections of resin embedded microbial aggregates followed the recently optimized protocol described in S. E. McGlynn et al. The phylogenetic identity of microorganisms in the thin sections were determined using conventional FISH using oligonucleotide probes fluorescently labeled on both the 5′ and 3′ ends (dual labeled) as outlined herein. […]

Series [3] deals with methane seep sediment (ANME archaea). Kind of series: Quantification of sulfide (methylene blue method) in AOM incubations. The conditions noted are these: Sulfate 28 mM, after 21-day incubation. The series is classed as cell-based, ANME-2a and ANME-2c. On the procedure: Quantification of sulfide. Supernatant was removed via syringe and centrifuged in 0.6 mL Eppendorf tubes (16000 rcf, 30 s). 20 μL of the clear supernatant was removed and added to 400 μL Zn(OAc)2 (500 mM) to preserve the sulfide. Analysis was carried out in triplicate via the methylene blue method described in J. D. Clin (Waters. Limnol. Oceanogr. 14:454 (1969)), using standards of 0.1, 0.25, 0.5, 1, 2, 5, 10 and 25 mM sulfide added to Zn(OAc)2 (500 mM) in the same ratios as for the samples. Quantification was carried out in a plate reader (TECAN Sunrise™) by monitoring the absorbance at 670 nm.

Consider `O=C1C(=C2Nc3c(cc(S(=O)(=O)O)cc3S(=O)(=O)O)C2=O)Nc2c1cc(S(=O)(=O)O)cc2S(=O)(=O)O` [Indigo tetrasulfonate], for which the “Rate relative to AOM with sulfate” value in series [1] (10 mM, 1 mM, no MoO4^2−) is ≤1.5 ^† %.

Take `O=C([O-])CN(CCN(CC(=O)[O-])CC(=O)[O-])CC(=O)[O-].[Fe+3]` [Fe(III)-EDTA]: the “Rate relative to AOM with sulfate” value in series [1] (1.6 mM, no MoO4^2−) is given as 8%; in series [1] (10 mM, no MoO4^2−), ≤1.5 ^† %.

With `Nc1ccc2nc3ccc(N)cc3[n+](-c3ccccc3)c2c1` [Phenosafranine], the “Rate relative to AOM with sulfate” value in series [1] (10 mM, 1.6 mM, no MoO4^2−) is on record as ≤1.5 ^† %.

In the case of `O=C1c2ccc(S(=O)(=O)O)cc2C(=O)c2cc(S(=O)(=O)O)ccc21` [2,7-AQDS, 9,10-anthraquinone-2,7-disulfonate], the “Rate relative to AOM with sulfate” value in series [1] (10 mM, no MoO4^2−) was found to be 97%. Besides, the “Solubility in the incubation medium” value in series [2] (4° C.) and in series [2] (22.5° C.) was more than 25 mM each time.

As to `O=C([O-])CC(O)(CC(=O)[O-])C(=O)[O-].[Fe+3]` [Fe(III)-citrate], the “Rate relative to AOM with sulfate” value in series [1] (2 mM, with 25 mM MoO4^2−) is recorded as 7%; in series [1] (5 mM, with 25 mM MoO4^2−), 37%; in series [1] (10 mM, no MoO4^2−), 53%; in series [1] (10 mM, with 25 mM MoO4^2−), 46%; in series [1] (25 mM, with 25 mM MoO4^2−), 2.5%. In addition, the “AOM consortia anabolically active (>10% archaeal activity relative to sulfate treatments, or >0.8 at % 15N)” value in the series with ANME-SRB consortia (second set of experiments, ca. 40% 15N) was 14 out of 31.

On to `O=C1c2cccc(S(=O)(=O)O)c2C(=O)c2cccc(S(=O)(=O)O)c21` [1,5-AQDS, 9,10-anthraquinone-1,5-disulfonate], for which, in series [1] (10 mM, no MoO4^2−), the “Rate relative to AOM with sulfate” value was 38%. For the same molecule, the “Solubility in the incubation medium” value in series [2] (4° C.) is 2.5 mM (≈ 921 µg/mL).

On to `COS(=O)(=O)[O-].C[n+]1c2ccccc2nc2ccccc21` [Phenazine methosulfate], for which the “Rate relative to AOM with sulfate” value in series [1] (1 mM, no MoO4^2−) is given as ≤1.5 ^† %.

Consider `O=C([O-])CN(CC(=O)[O-])CC(=O)[O-].[Fe+3]` [Fe(III)-NTA], for which the “Rate relative to AOM with sulfate” value in series [1] (1 mM, no MoO4^2−) is given as 2.5%; in series [1] (10 mM, no MoO4^2−), ≤1.5 ^† %.

Regarding 1-Hydroxynaphthoquinone, in series [1] (10 mM, 1 mM, no MoO4^2−), the “Rate relative to AOM with sulfate” value was ≤1.5 ^† %.

For `CN(C)c1ccc2nc3ccc(=[N+](C)C)cc-3sc2c1` [Methylene blue], the “Rate relative to AOM with sulfate” value in series [1] (1 mM, no MoO4^2−) is ≤1.5 ^† %.

In the case of `O=S(=O)(O)O` [Sulfate], the “Rate relative to AOM with sulfate” value in series [1] (28 mM, no MoO4^2−, 100% = 1.50 μmol cm^−3 day^−1) is listed as 100%; in series [1] (28 mM, with 25 mM MoO4^2−), 20%. Further, the DIC formed in series [1] (Sulfate 28 mM, after 21-day incubation) was 6.44 mM and 7.77 mM and 7.51 mM and 7.29 mM. The “sulfate-coupled AOM rate” value in series [1] (reference rate (100%) of Table 4) turned out to be 1.50 μmol cm^−3 day^−1. Moreover, in series [1] (sediment characterization), the AOM rate was 1.5 μmol methane (cm^3 wet sediment)^−1 d^−1. The “sulfide (sum of HS^− and H2S), final concentration” value in series [3] is 5.9 mM and 6.5 mM and 7.0 mM and 6.1 mM. Besides, in the series on ANME-SRB consortia (18 days with 15NH4+), the “doubling time of ANME cells based on average 15N-incorporation” value is 2.9 months.

Take `[Na+].[Na+].[O]=[Mo](=[O])([O-])[O-]` [molybdate, sodium molybdate]: in series [1] (25 mM molybdate, AQDS 10 mM), the “effect on methane oxidation in sulfate-free incubations containing AQDS” value is on record as “no inhibitory response”. Further, in series [1] (25 mM molybdate, sulfate 28 mM), the “effect on rates of sulfate-coupled AOM relative to controls” value is recorded as “decreased by approximately fivefold”.

Take `O=c1ccc2[n+]([O-])c3ccc(O)cc3oc-2c1` [Resazurin]: the “Rate relative to AOM with sulfate” value in series [1] (10 mM, no MoO4^2−) is ≤1.5 ^† %.

Regarding `Cc1cc2nc3cc(C)c(N)cc3[n+](-c3ccccc3)c2cc1N.[Cl-]` [Safranine T], the “Rate relative to AOM with sulfate” value in series [1] (10 mM, 1.6 mM, no MoO4^2−) is on record as ≤1.5 ^† %.
